Source: US5554620A, “Substituted 6,11-ethano-6,11-dihydrobenzo[b] quinolizinium salts and compositions and methods of use thereof” (Sterling Winthrop Inc., priority 1994, dated 1996)

How the values were obtained:
[1] = system: cultured cortical neurons; assay: Antagonism of NMDA-induced neurotoxicity in cultured cortical neurons (LDH release); assay type: cell-based, mouse (Swiss-Webster); settings: Mus musculus, Cortical neurone, 500 μM NMDA, 30 min exposure; LDH 24 h later
Description: Antagonism of NMDA-induced Neurotoxicity in Cultured Neurons
Preparation of Cultured Cortical Neurons
Pregnant, Swiss-Webster mice were obtained from Taconic Farms (Germantown, New York) and sacrificed 16 days post conception. Fetuses were removed and placed in a sterile dish containing Hank's balanced salt solution (HBSS), pH 7.4. Brain cortices were dissected, meninges were removed, the tissue was minced and placed into a solution of HBSS containing 0.25% (w/v) trypsin at 37° C. for 15 minutes. Tissue was then triturated with a sterile pasteur pipet, diluted with minimal essential media (Gibco 330-1430), pH 7.4, supplemented with 10% horse serum, 10% fetal calf serum, 2 mM 1-glutamine, 21 mM d-glucose, 2.2 g/L sodium bicarbonate, 1000 U/mL penicillin, and 1,000 μg/mL streptomycin. Cells were plated onto Falcon primaria 96 well plates at a final density of 50,000 cells/well and incubated at 37 °C in the presence of 5% (v/v) carbon dioxide. After 5 days, plating media was replaced with maintenance media containing minimal essential media (Gibco 330-1430), pH 7.4, supplemented with 10% horse serum, […], 21 mM d-glucose, 2.2 g/L sodium bicarbonate, 1,000 U/mL penicillin, 1,000 μg/mL streptomycin, and 10 μM cytosine arabinoside. On days 7 and 10, media was replaced with maintenance media as above lacking the cytosine arabinoside. Experiments were conducted on day 13.
Neuroprotection Assessment
Day 13 cultured cortical neurons were washed twice with minimal essential media, pH 7.4 and then exposed for 30 minutes to 500 μM N-methyl-D-aspartic acid (NMDA) with or without varying concentrations of test agents. […] MK-801 and test agents were prepared in minimal essential media supplemented with 21 mM d-glucose and 2.2 g/L sodium bicarbonate (MEM). After 30 minutes, media was replaced with MEM alone. Exposure of neurons to test agents was limited to the NMDA treatment period. Twenty-four hours after removal of NMDA, an aliquot of media from each well was removed for assessment of cell injury by determining lactate dehydrogenase (LDH) activity by the method of Wroblewski and LaDue Proc. Soc. Exp. Biol. Med. 1955, 90, 210-213. The results are expressed as an IC50 (in nM) value (concentration causing 50% inhibition) for the antagonism of NMDA--inducedneurotoxicity. Table 3 summarizes the results obtained from the testing of representative compounds of the invention in the [^3 H]TCP radioreceptor assay as well as in the antagonism of NMDA-induced neurotoxicity in cultured neurons.

PCP receptor = assay: [3H]TCP radioreceptor assay (binding to PCP recognition sites); design: species or system rat (male Sprague-Dawley, whole brain); settings: [3H]TCP approx. 1 nM, rat brain membranes; mean of at least two determinations
In short: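 Rat whole-brain membranes (Tris-HCl, pH 7.7), 0.5 mg protein/tube, incubated with ~1 nM [3H]TCP for 25 min at room temperature; non-specific binding defined with 100 μM PCP. Bound ligand collected by filtration and counted by scintillation; Ki from at least two determinations, or % inhibition at 10 μM.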

rat ischemia model = assay: Middle cerebral artery occlusion (MCAo) model with reperfusion; assay type: in vivo, rat (male Long Evans hooded and male Sprague-Dawley); settings: i.v. infusion started 30 min before occlusion
Description: Middle Cerebral Artery Occlusion (MCAo) Model with Reperfusion
A 3-vessel rat ischemia model similar to those that have been extensively described in the literature (e.g. Stroke 17, 738-743 (1986), Stroke 20, 513-518 (1989)) was utilized. Under isoflurane anesthesia the right middle cerebral artery (via an approach through the temporalis muscle) and both common carotid arteries were reversibly occluded for varying durations between 60 minutes and 120 minutes. Both male Long Evans hooded rats and male Sprague-Dawley rats weighing between 300 and 420 grams were used. The animals' temperature was maintained throughout the study with heat lamps. A femoral vein and the ipsilateral femoral artery were cannulated for intravenous infusion and arterial blood pressure measurements and blood samples. Infusions of the test compounds were initiated 30 minutes prior to occlusion at a rate of 40 microliters per minute. After reinitiation of blood flow the animals were allowed to regain consciousness. Six hours post-initiation of ischemia the animals were sacrificed and the extent of neuronal damage was quantified with TTC staining. The results are expressed as a percent inhibition (±SEM) of infarct and penumbra region.

Structure (SMILES)	IC50 [1]	Ki (PCP receptor)	% Inhibition (± SEM) of infarct and penumbra region (rat ischemia model; 0.03 mg test compound/kg/min)	% Inhibition (± SEM) of infarct and penumbra region (rat ischemia model; 0.1 mg test compound/kg/min)	% Inhibition (± SEM) of infarct and penumbra region (rat ischemia model; 0.01 mg test compound/kg/min)
[Cl-].c1ccc2c(c1)C1CC(c3ccoc3)(c3ccoc3)C2c2cccc[n+]21 (stereo not shown) [39(c), 6,11-ethano-12,12-di(3-furanyl)-6,11-dihydrobenzo[b]quinolizinium chloride]	45.4 nM	1.79 nM	20 ± 7%	34 ± 6%	
c1ccc2c(c1)C1CC(c3ccoc3)(c3ccoc3)C2c2cccc[n+]21 (single isomer, unassigned; (+)) [Example 40(b), (+)-6,11-ethano-12,12-di(3-furanyl)-6,11-dihydrobenzo[b]quinolizinium chloride 3/2 hydrate]	20 nM	1.66 nM	49 ± 25%	47 ± 18%	1 ± 31%
Oc1cccc2c1C1c3cccc[n+]3C2CC1(c1ccoc1)c1ccoc1.[Cl-] (stereo not shown) [Example 68(c), 6,11-ethano-12,12-di(3-furyl)-10-hydroxy-6,11-dihydrobenzo[b]quinoliziniumchloride]		1.5 nM		34 ± 14%	
Oc1ccc2c(c1)C1c3cccc[n+]3C2CC1(c1cc[nH]n1)c1cc[nH]n1 (stereo not shown) [195(c), 12,12-di(pyrazol-3-yl)-9-hydroxy-6,11-ethano-6,11-dihydrobenzo[b]quinolizinium chloride]	30.8 nM	12.6 nM			
